Test results: patent publication US7273880B2, “Selective NPY (Y5) antagonists” (H. Lunbeck A/S, priority 1999, dated 2007)
Where a name gives a salt, the structure may show the parent alone.

melting point	Structure (SMILES)
164 to 166 °C	COCCN(C=O)[C@H]1CC[C@H](CNc2nc3c(s2)CCOc2ccccc2-3)CC1 (as salt: HCl) [Example 86, N-{4-[(4,5-dihydrobenzo[2,3]oxepino[4,5-d][1,3]thiazol-2-ylamino)methyl]cyclohexyl}-N-(2-methoxyethyl)formamide]
210 to 213 °C	CCN(C=O)[C@H]1CC[C@H](CNc2nc3c(s2)CCOc2ccccc2-3)CC1 (as salt: HCl) [Example 87, trans-1-Aza-2-(4-(n-(ethyl) formamido)cyclohexyl)methyl-amino-4,5-dihydro-6-oxa-3-thia-benzo[e]azulene]
195 to 197 °C	CCCN(C=O)[C@H]1CC[C@H](CNc2nc3c(s2)CCOc2ccccc2-3)CC1 (as salt: HCl) [Example 88, N-{4-[(4,5-Dihydrobenzo[2,3]oxepino[4,5-d][1,3]-thiazol-2-ylamino)methyl]cyclohexyl}-N-propyl-formamide]
175 to 178 °C	COCC(=O)NCc1ccc(Nc2nc3c(s2)CCCc2ccc(F)cc2-3)cc1 (as salt: HCl) [Example 89, N1-{4-[(9-fluoro-5,6-dihydro-4H-benzo[6,7]cyclohepta-[d][1,3]thiazol-2-yl)amino]benzyl}-2-methoxyacetamide]

Continued, molecule first:

Structure (SMILES)	melting point
COc1ccc(C)cc1S(=O)(=O)NC[C@H]1CC[C@H](Nc2nc3c(s2)CCOc2ccccc2-3)CC1 (as salt: HCl) [Example 48, trans-1-Aza-4,5-dihydro-2-{4-(2-methoxy-5-methyl)phenyl-sulfonylaminomethyl}cyclohexylamino-6-oxa-3-thia-benzo[e]azulene]	100 to 105 °C (dec.)
COc1ccc(C)cc1S(=O)(=O)NCCOCCNc1nc2c(s1)CCCc1ccc(F)cc1-2 (as salt: HCl) [Example 58, 1-Aza-9-fluoro-4,5-dihydro-2-{2-[2-(2-methoxy-5-methylphenyl)sulfonylamino]ethoxy}ethylamino-3-thia-benzo[e]azulene]	56 to 60 °C
COc1ccc2c(c1)-c1nc(NC[C@H]3CC[C@H](NS(C)(=O)=O)CC3)sc1CCO2 (as salt: HCl) [Example 63, trans-1-Aza-4,5-dihydro-9-methoxy-2-{4-methylsulfonyl-amino}cyclohexylmethylamino-6-oxa-3-thia-benzo[e]azulene]	200 to 215 °C
COc1cccc2c1OCCc1sc(NC[C@H]3CC[C@H](NS(=O)(=O)N(C)C)CC3)nc1-2 (as salt: HCl) [Example 66, trans-1-Aza-4,5-dihydro-7-methoxy-2-{4-dimethylamino-sulfonylamino}cyclohexylmethylamino-6-oxa-3-thia-benzo[e]azulene]	206 to 208 °C
CC(C)S(=O)(=O)NCCOCCNc1nc2c(s1)CCCc1ccc(F)cc1-2 (as salt: HCl) [Example 69, 1-Aza-9-fluoro-4,5-dihydro-2-(2-(2-isopropyl-sulfonylamino)-ethoxy)ethylamino-3-thia-benzo[e]-azulene]	50 to 55 °C
O=C1OCCN1C[C@H]1CC[C@H](Nc2nc3c(s2)CCCc2ccc(F)cc2-3)CC1 (as salt: HCl) [Example 79, 3-({4-[(9-fluoro-5,6-dihydro-4H-benzo[6,7]cyclohepta-[d][1,3]thiazol-2-yl)amino]cyclohexyl}methyl)-1,3-oxazolan-2-one]	223 to 225 °C
COCC(=O)NC[C@H]1CC[C@H](Nc2nc3c(s2)CCCc2ccc(F)cc2-3)CC1 (as salt: HCl) [Example 80, N1-({4-[(9-fluoro-5,6-dihydro-4H-benzo[6,7]-cyclohepta-[d][1,3]thiazol-2-yl)amino]cyclohexyl}-methyl)-2-methoxyacetamide]	63 to 65 °C
COCC(=O)N[C@H]1CC[C@H](CNc2nc3c(s2)CCOc2ccccc2-3)CC1 (as salt: HCl) [Example 84, N1-{4-[(4,5-dihydrobenzo[2,3]oxepino[4,5-d][1,3]thiazol-2-ylamino)methyl]cyclohexyl}-2-methoxyacetamide]	234 to 237 °C
